Data published in patent US20070232563A1, “Method for Enhancing Biological Activity and/or Expanding Suitable Region for Biological Activity of Living Body Contacting with Aqueous Environment” (Kabushiki Kaisha Hayashibara Seibutsu Kagaku Kenky, priority 2004, published 2007).

Assays:
[1] = system: colbicula (Corbicula leana); test: Biological activity of corbicula (aqueduct extension score) in aqueous mineral solutions; assay type: in vivo
Description: Influence of various saccharides was judged by observing the degree of extending aqueduct of the shellfish; 3 points: its aqueduct is well extended; 2 points: its aqueduct is slightly extended; 1 point: its aqueduct is not extended but its shells are opened; 0 point: its shells are closed. The effect on biological activity was judged by the total point of 18 shellfishes.
Suitable region for biological activity was examined by using colbicula (Corbicula leana) as fishes and shellfishes living in fresh water in the case of enhancing their biological activity by using aqueous mineral solutions containing various saccharides. In detail, solar salt (85% by weight of sodium chloride and 15% by weight of magnesium) as minerals was dissolved in tap water kept in a container for two days to give final concentrations described in the following Table 4. Saccharide (any one of D-glucose, maltose, sucrose, maltitol, α,α-trehalose, α-maltosyl α,α-trehalose, maltotetraose and cyclic tetrasaccharide) was dissolved in the resulting salt solutions to give a final concentration of 1 w/v %, on a dry solid basis. The resulting each solution was placed in a plastic bat. Eighteen pre-selected active shellfishes in one group were placed in the bat. The bat was shaded with a black cloth and left at ambient temperature (18° C.) for 16 hours. As a control, an aqueous solar salt solution without saccharides was prepared. Biological activity of the shellfish was judged by measuring extend their aqueducts macroscopically in the same manner as in Experiment 1.
Effective concentration range of α,α-trehalose or α-maltosyl α,α-trehalose on enhancing biological activity and/or influencing on suitable region for biological activity of colbicula (Corbicula leana) was determined according to the method of Experiment 4 by examining biological activity of the shellfish in the aqueous mineral solution with a mineral concentration of 1.5 w/v %, where α,α-trehalose or α-maltosyl α,α-trehalose was effective in Experiment 4, containing α,α-trehalose or α-maltosyl α,α-trehalose at a concentration of 0.01, 0.1, 1, 2, 3 or 4 w/v %, on a dry solid basis. As a control, a solution containing 1.5 w/v % of mineral without such saccharides was prepared and treated in the same manner.

[2] = system: alfalfa; test: Cultivation of sprout food (alfalfa) in aqueous mineral solution: stem extension, flavor and taste panel; assay type: in vivo; settings: aerial part (stem) height vs water control; each ingredient 1 (w/v)%; three days, 18° C.
Description: Absorbent cotton was allowed to absorb aqueous solution containing on a dry solid basis 1 w/v % of mineral (sodium chloride) and 1 w/v % of α,α-trehalose or α-maltosyl α,α-trehalose and placed in a transparent container. One hundred per group commercialized alfalfa seeds were placed in the container. As references, waters containing either of mineral, α,α-trehalose or α-maltosyl α,α-trehalose were used. As a control, water was used. After covered with a transparent lid, the container was placed in a room under a borrowed light at 18° C. for three days to cultivate alfalfa. The grown alfalfa plants were measured to calculate average value of aerial part (stem) height. Relative extension rate was calculated in such a manner of comparing the average value of each sample with that of control. In addition, 20 panels were judged in view of flavor and taste in such a manner of comparing each sample with control cultivated in water.

[3] = system: crucian (Carassium cuvieri); test: Removing fishy smell of freshwater fish: activity and sashimi panel; assay type: in vivo, Carassius cuvieri; settings: macroscopic observation; bred three days; each ingredient 1 (w/v)%
Procedure: Two per group of living crucian (Carassium cuvieri) with body size in the range of 15 to 20 cm were bred at ambient temperature in an aquarium filled with 10 L of an aqueous solution containing 1 w/v % mineral (solar salt) and 1 w/v % α,α-trehalose or α-maltosyl α,α-trehalose, on a dry solid basis, for three days. Waters containing either of mineral, α,α-trehalose or α-maltosyl α,α-trehalose as references and water without any mineral and saccharides as a control were prepared to breed the fishes similarly as above. The fishes were macroscopically observed their activity, and then prepated into sashimi. Twenty panels were allowed to taste them to judge their flavor and taste (fishy smell) in such a manner of comparing with references by the following four judgment criterions; “good”: no fishy smell; “slightly good”: fishy smell is weaker than the references; “normal”: fishy smell is equal to the references; and “bad”: fishy smell is stronger than the references.

[4] = Experiment 5, mineral 1.5 w/v %, saccharide 0.01 w/v %
[5] = Experiment 5, mineral 1.5 w/v %, saccharide 0.1 w/v %
[6] = Experiment 5, mineral 1.5 w/v %, saccharide 1 w/v %
[7] = Experiment 5, mineral 1.5 w/v %, saccharide 2 w/v %
[8] = Experiment 5, mineral 1.5 w/v %, saccharide 3 w/v %
[9] = Experiment 5, mineral 1.5 w/v %, saccharide 4 w/v %
[10] = mineral concentration 0, saccharide 1 w/v %, total of 18 shellfishes, 16 h
[11] = mineral concentration 0.5, saccharide 1 w/v %, total of 18 shellfishes, 16 h
[12] = mineral concentration 1.0, saccharide 1 w/v %, total of 18 shellfishes, 16 h
[13] = mineral concentration 1.5, saccharide 1 w/v %, total of 18 shellfishes, 16 h
[14] = mineral concentration 2.0, saccharide 1 w/v %, total of 18 shellfishes, 16 h
[15] = mineral concentration 2.5, saccharide 1 w/v %, total of 18 shellfishes, 16 h
[16] = mineral concentration 3.0, saccharide 1 w/v %, total of 18 shellfishes, 16 h

SMILES	Judgment score of biological activity [1, 4]	Judgment score of biological activity [1, 5]	Judgment score of biological activity [1, 6]	Judgment score of biological activity [1, 7]	Judgment score of biological activity [1, 8]	Judgment score of biological activity [1, 9]	Judgment score of biological activity [1, 10]	Judgment score of biological activity [1, 11]	Judgment score of biological activity [1, 12]	Judgment score of biological activity [1, 13]	Judgment score of biological activity [1, 14]	Judgment score of biological activity [1, 15]	Judgment score of biological activity [1, 16]	Relative extension (%) [2]	Activity of Carassius cuvieri [3]
OC[C@H]1O[C@H](O[C@H]2O[C@H](CO)[C@@H](O[C@H]3O[C@H](CO)[C@@H](O[C@H]4O[C@H](CO)[C@@H](O)[C@H](O)[C@H]4O)[C@H](O)[C@H]3O)[C@H](O)[C@H]2O)[C@H](O)[C@@H](O)[C@@H]1O [α-Maltosyl α,α-trehalose, α-maltosyl α,α-trehalose]	19	35	45	41	34	21	54	53	45	44	37	24	4	105%	Good
OC[C@H]1O[C@H](O[C@H]2O[C@H](CO)[C@@H](O)[C@H](O)[C@H]2O)[C@H](O)[C@@H](O)[C@@H]1O [α,α-Trehalose, α,α-trehalose]	21	39	52	48	39	25	54	53	52	49	42	20	6	101%	Good
